Tests used:
Type in all cases: cell-based, human
786-O = experiment: ATP luminescence proliferation assay, 786-O; conditions: Homo sapiens, 786-0, 48 h, read-out: EC50 786-O (48 h), ATP luminescence, 786-O, 48 h incubation
Experimental: (§1) This example generally describes the procedures used to assay the antiproliferative activity of compounds of this invention or their conjugates. Human tumor cell lines were obtained from the American Type Culture Collection (ATCC), P.O. Box 1549, Manassas, Va. 20108, USA, and cultured according to instruction from the ATCC. Cells were seeded at 1.0×10^3 or 1.0×10^4 cells/well in 96-well plates for 3 h for ATP assays or ^3H thymidine assays, respectively. 1:3 serial dilutions of free (unconjugated) compounds or their conjugates were added to the wells. Plates were allowed to incubate for 24 to 72 h. The ^3H thymidine plates were pulsed with 1.0 μCi of ^3H-thymidine per well for the last 24 hours of the total incubation period, harvested, and read on a Top Count Scintillation Counter (Packard Instruments, Meriden, Conn.). ATP levels in the ATP plates were measured using the […]-GLO® Luminescent Cell Viability kit following the manufacturer's manual and read on a GLOMAX® 20/20 luminometer (both from Promega, Madison, Wis., USA). The EC50 values—the concentration at which an agent inhibits or reduces cell proliferation by 50% —were determined using PRISM™ software, version 4.0 (GraphPad Software, La Jolla, Calif., USA).
(§2) Using the ^3H thymidine or the ATP luminescence assay, or both, the activities of compounds of this invention were assayed against the following cancer cell lines: HCT-15 (colorectal cancer, multi-drug resistant (MDR)); Hep3B (liver cancer); LNCaP (prostate cancer, androgen receptor positive (AR^+)); MDA-MB-231 (breast cancer, estrogen receptor, progesterone receptor, and Her2 negative (triple negative)); A2058 (melanoma); U-87 MG (glioblastoma); NCI-H460 (NSCLC); A549 (NSCLC); HPAC (pancreatic cancer, primary); PC3 (prostate cancer, AR); BT474 (breast cancer, Her2 highly positive (Her2hi)); SKOV3 (ovarian cancer, Her2hi); 786-O (renal cancer); UO-31 (renal cancer, MDR); NCI-H740 (SCLC); DMS53 (SCLC); SK-BR3 (breast cancer, Her2hi); ZR-75 (breast cancer, estrogen receptor positive); OVCAR3 (ovarian cancer); HL-60 (APL); OVCAR8/Adr (ovarian cancer, MDR); CEM-Cl (ALL); Nomo-1 (AML); RPMI-8226 (MM)); Raji (lymphoma); SW-480 (colorectal cancer, metastatic); SW-620 (colorectal cancer); and H226 (lung cancer). (Not all compounds were assayed against all cell lines.)
(§3) FIGS. 12a and 12b show illustrative plots for ATP luminescence proliferation assays for a second set of compounds of this invention, against HL-60 and 786-O cells, respectively, with an incubation period of 72 h. FIGS. 12c and 12d show the plots for ^3H thymidine proliferation assays for the same set of compounds, again against HL-60 and 786-O cells, respectively, with a 72 h incubation period. In each instance, doxorubicin was used as a comparative compound.
(§4) Table 3 provides the data for the ATP luminescence proliferation assays, with an incubation period of 48, 72, or 96 h, as noted.

H226 = experiment: ATP luminescence proliferation assay, H226; conditions: Homo sapiens, NCI-H226, 72 h incubation period, read-out: EC50 against the H226 cell line
Experimental: as §1, with “The EC50 values—the concentration at which an agent inhibits or reduces cell proliferation by 50% —were determined using PRISM™ software, version 4.0 (GraphPad Software, La Jolla, Calif., USA).” left out
as §2, with “(Not all compounds were assayed against all cell lines.)” left out

OVCAR3 = experiment: ATP luminescence proliferation assay, OVCAR3; conditions: Homo sapiens, OVCAR-3, 72 h, read-out: EC50 OVCAR3 (72 h), ATP luminescence, OVCAR3, 72 h incubation
Experimental: as §1, §2, §4

OVCAR8/Adr = experiment: ATP luminescence proliferation assay, OVCAR8/Adr; conditions: Homo sapiens, OVCAR-8, 48 h incubation period, read-out: EC50 against the OVACAR8/Adr cell line
Experimental: as §1, §2, §4

HL-60 = experiment: ATP luminescence proliferation assay, HL-60; conditions: Homo sapiens, HL-60, 48 h, read-out: EC50 HL-60 (48 h), ATP luminescence, HL-60, 48 h incubation
Experimental: as §1, §2, §3, §4

[1] = tested on: 786-O renal cancer cells, which are CD70 positive; experiment: In vitro activity of conjugates, 3H thymidine proliferation assay, 786-O; conditions: 72 h incubation
Experimental: as §1
The incubation period was 72 h. The EC50 values extracted from the curves of FIG. 13 are given in Table 4, along data from other experiments. […]

Molecule | EC50 (786-O) | EC50 (H226) | EC50 (OVCAR3) | EC50 (OVCAR8/Adr) | EC50 (HL-60) | EC50 [1]
CCCN(C(=O)[C@@H](NC(=O)[C@H]1CCCCN1C)[C@@H](C)CC)[C@H](C[C@@H](OC(C)=O)c1nc(C(=O)N[C@@H](Cc2ccccc2)C(=O)OC)cs1)C(C)C [Compound 109] | 1.03 nM | 1.61 nM | 0.202 nM | 24.9 nM | 0.019 nM | 
diphtheria toxin [DTX] |  |  |  |  |  | 104 nM
